Data set [1] addresses hERG potassium channel (Homo sapiens (Human), UniProt Q12809). As to the kind of experiment: hERG experiment to investigate potential cardiotoxicity (manual patch clamp, CHO hERG cells). Format: cell-based. To be noted: whole cell patch clamp, tail current. The method, then:
CHO hERG cells were grown in a culture dish containing the above medium, and cultured in an incubator at 37° C. and 5% CO2. CHO hERG cells were transferred to circular glass slides placed in the culture dish 24-48 hours prior to electrophysiological experiments and grown under the same medium and culture conditions as above. The density of CHO hERG cells on each circular slide shall meet the requirement that most of the cells are independent and individual.
2: Preparation of Experimental Solutions
3: Electrophysiological Recording System
A manual patch clamp system (HEKA EPC-10 signal amplifier and digital conversion system, purchased from HEKA Electronics, Germany) is used in this experiment for whole cell currents recording. A circular slide with CHO hERG cells grown on its surface was placed in an electrophysiology recording tank under an inverted microscope. The extracellular fluid was continuously perfused in the recording tank (about 1 ml per minute). A conventional whole cell patch clamp current recording technique was used in the experimental procedure. Unless otherwise specified, the experiments were carried out at conventional room temperature (about 25° C.). The cells were clamped at a voltage of −80 mV. The clamp voltage for cells was depolarized to +20 mV to activate the hERG potassium channel, and after 5 seconds, the cells were clamped to −50 mV to eliminate inactivation and generate a tail current. The tail current peak was used as the value of the hERG current magnitude. After the hERG potassium current recorded in the above step was stable under the continuous extracellular fluid perfusion in the recording tank, the drug to be tested can be perfused simultaneously and filled until the inhibitory effect of the drug on the hERG current reached a steady state. Generally, the superposition of the last three consecutive current recording lines was used as a criterion for judging whether or not the state was stable. After reaching a steady state, a wash with extracellular fluid perfusion was conducted until the hERG returned to that before the drug was added. One cell can be used to test one or more drugs, or multiple concentrations of the same drug, but need to be washed with an extracellular fluid between different drugs. Cisapride (purchased from Sigma) was used as a positive control in the experiment to ensure that the cells used were of normal quality.
4: Treatment and Dilution of Compounds
Prior to testing, the compounds were first diluted to 10, 3, 1, 0.3, and 0.1 mM stock solutions by a method of gradual dilution with DMSO, and were then diluted to the final M test concentration with extracellular fluids. The final concentration of DMSO in each of the other compound solutions was 0.1%, except that the DMSO concentration in the 30 μM compound test solution was 0.3%. The test concentration of the positive control (Cisapride) was 0.1 μM. All compound solutions were sonicated and shaken for a routine of 5 to 10 minutes to ensure complete dissolution of the compounds.
The test data were analyzed by HEKA Patchmaster, Microsoft Excel and data analysis software provided by Graphpad Prism.

A short description of data set [2]: Pharmacokinetic test in SD rats (oral 10 mg/kg, intravenous 1 mg/kg). Format: in vivo. To be noted: SD rat; for F (po) %: oral 10 mg/kg vs intravenous 1 mg/kg; for clearance / half-life / AUC / Cmax / Tmax: male, plasma; for clearance / half-life: intravenous 1 mg/kg; for clearance: read-out: Cl (iv) (converted); for half-life: read-out: T½ (iv) h (converted); for AUC / Cmax / Tmax: oral 10 mg/kg. The method, then: SD rat, male (purchased from Shanghai Sippr-Bk Laboratory Animal Co., Ltd.), each tested compound was administered at a single dose to SD rats by oral administration (10 mg/kg, 3 rats in each group) and intravenous administration (1 mg/kg, 3 rats in each group) for the pharmacokinetic study. The tested compounds were dissolved using DMSO/[…] sodium chloride injection=5/95 (V/V), and vortexed for 1 minute, and after 1 minute of sonication, the compounds were formulated into solutions for administrations. Animals were fasted for 16-17 hours prior to oral administration and feeding was restored 4 hours after administration. After oral and intravenous administration, pharmacokinetic samples were collected from SD rats by jugular vein or cardiac puncture at the following time points: before administration, 5 minute, 15 minute, 30 minute, 1 hour, 2 hours, 4 hours, 6 hours, 8 hours and 24 hours after administration. 3 whole blood samples were collected at each time point, and the collected amount was about 0.2 mL, and the collected samples were anticoagulated by heparin sodium. After collection, the blood samples were immediately placed on ice and centrifuged to separate plasma within 30 minutes (centrifugation conditions: 8000 rpm, 6 minute, 2-8° C.). The collected plasma was stored at −70° C. prior to analysis. 50 μL of plasma sample was brought into a 1.5 mL centrifuge tube, 250 μL of internal standard solution (blank with no internal standard but the same volume of methanol added) was added, blended with vortex, centrifuged at 15000 rpm for 5 minutes. 200 μL of supernatant was taken and added to a 96-well sample plate and the samples were analyzed by LC-MS/MS.

Data set [3] concerns TMD8 cells. As to the kind of experiment: Cell proliferation inhibition in vitro, TMD8 cells by CCK-8 method. Format: cell-based. The settings on record: Homo sapiens, 72 hours, read-out: Inhibitions of cell activities IC50 (nM) TMD8. In general terms: Tetrazolium dyes change colour on reduction, which living cells bring about.
The target of data set [4] is BTK kinase (Homo sapiens (Human), UniProt Q06187). Briefly: In vitro assay for the inhibition of BTK kinase activity (Mobility-Shift Assay). Format: biochemical. A digest of the protocol:
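Fluorescently labelled peptide substrate converted by the kinase; substrate and phosphorylated product separated by charge on a microfluidic chip (mobility shift) and quantified separately. Results expressed as conversion rate; control wells received 100% DMSO.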

Data set [5] relates to OCI-LY10 cells. As to the kind of experiment: Cell proliferation inhibition in vitro, OCI-ly10 cells by CCK-8 method. Format: cell-based. The settings on record: Homo sapiens, 72 hours, read-out: Inhibitions of cell activities IC50 (nM) OCI-LY10.
Data set [6] relates to DOHH2 cells. Briefly: Cell proliferation inhibition in vitro, DOHH2 cells by CTG assay. The settings on record: Homo sapiens, DOHH-2, 72 hours, read-out: Inhibitions of cell activities IC50 (nM) DOHH2. Format: cell-based.

Where only a bound is given, the exact number is not on record here.

The results in this text go back to patent US10793576B2, “Compound used as Bruton's tyrosine kinase inhibitor and preparation method and application thereof” (Chengdu Brilliant Pharmaceutical Co., LTD., priority 2017, dated 2020).

Sequence of hERG potassium channel (Q12809 whole entry): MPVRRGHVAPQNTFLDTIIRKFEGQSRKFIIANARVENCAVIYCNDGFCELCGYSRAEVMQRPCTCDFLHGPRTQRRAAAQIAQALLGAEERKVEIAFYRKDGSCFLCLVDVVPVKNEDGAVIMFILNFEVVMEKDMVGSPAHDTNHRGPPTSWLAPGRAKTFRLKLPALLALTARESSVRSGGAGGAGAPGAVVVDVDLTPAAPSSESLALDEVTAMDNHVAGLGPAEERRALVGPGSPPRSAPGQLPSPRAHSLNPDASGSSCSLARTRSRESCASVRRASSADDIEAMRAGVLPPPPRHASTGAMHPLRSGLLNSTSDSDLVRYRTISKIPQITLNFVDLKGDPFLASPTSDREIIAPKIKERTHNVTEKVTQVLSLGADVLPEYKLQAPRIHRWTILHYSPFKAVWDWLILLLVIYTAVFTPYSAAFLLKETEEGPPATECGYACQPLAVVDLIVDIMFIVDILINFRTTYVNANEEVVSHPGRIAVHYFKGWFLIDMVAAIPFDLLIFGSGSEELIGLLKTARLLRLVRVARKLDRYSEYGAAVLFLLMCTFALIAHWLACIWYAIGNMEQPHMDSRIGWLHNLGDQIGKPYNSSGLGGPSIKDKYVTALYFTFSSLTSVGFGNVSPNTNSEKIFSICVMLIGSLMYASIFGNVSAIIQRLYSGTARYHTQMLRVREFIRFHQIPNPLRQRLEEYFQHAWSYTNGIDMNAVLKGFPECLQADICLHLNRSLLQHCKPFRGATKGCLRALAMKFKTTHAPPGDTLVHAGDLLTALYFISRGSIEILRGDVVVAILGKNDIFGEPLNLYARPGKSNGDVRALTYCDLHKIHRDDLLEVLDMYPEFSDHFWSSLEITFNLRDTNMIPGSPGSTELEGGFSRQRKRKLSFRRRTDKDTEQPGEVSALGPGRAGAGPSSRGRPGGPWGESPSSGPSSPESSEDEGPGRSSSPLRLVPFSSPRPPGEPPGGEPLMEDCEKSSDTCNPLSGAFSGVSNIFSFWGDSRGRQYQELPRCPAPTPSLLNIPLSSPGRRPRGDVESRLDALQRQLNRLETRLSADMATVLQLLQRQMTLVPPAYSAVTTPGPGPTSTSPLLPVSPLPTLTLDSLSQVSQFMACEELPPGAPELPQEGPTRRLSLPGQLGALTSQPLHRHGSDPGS
Sequence of BTK kinase (Q06187 whole entry): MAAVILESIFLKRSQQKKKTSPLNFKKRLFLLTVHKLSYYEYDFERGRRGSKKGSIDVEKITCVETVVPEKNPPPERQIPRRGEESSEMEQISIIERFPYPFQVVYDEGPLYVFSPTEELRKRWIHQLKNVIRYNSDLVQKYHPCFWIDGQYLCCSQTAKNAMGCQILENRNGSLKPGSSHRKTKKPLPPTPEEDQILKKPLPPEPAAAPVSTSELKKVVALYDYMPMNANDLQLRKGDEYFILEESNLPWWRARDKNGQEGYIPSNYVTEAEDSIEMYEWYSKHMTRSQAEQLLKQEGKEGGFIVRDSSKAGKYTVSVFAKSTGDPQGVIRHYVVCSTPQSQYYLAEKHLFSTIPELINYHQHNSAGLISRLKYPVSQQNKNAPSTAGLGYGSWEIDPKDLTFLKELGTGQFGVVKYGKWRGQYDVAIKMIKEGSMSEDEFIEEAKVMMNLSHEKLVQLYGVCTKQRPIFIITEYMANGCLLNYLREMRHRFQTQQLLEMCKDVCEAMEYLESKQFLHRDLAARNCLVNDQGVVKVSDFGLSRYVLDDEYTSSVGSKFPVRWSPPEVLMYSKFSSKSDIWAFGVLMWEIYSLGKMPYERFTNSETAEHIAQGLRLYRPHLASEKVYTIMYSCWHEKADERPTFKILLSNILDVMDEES

In the case of `C=CC(=O)N1CC2CCCC2[C@H]1c1nc(-c2ccc(Oc3ccccc3)cc2)c2c(N)nccn12` (stereo partly shown) [Example 96], in data set [1], the IC50 was more than 30000 nM.

Turning to `C=CC(=O)N1[C@@H]2CC[C@@H](C2)[C@H]1c1nc(-c2ccc(C(=O)Nc3ccccn3)cc2)c2c(N)nccn12` [Example 22, 4-(3-((1R,3S,4S)-2-acryloyl-2-azabicyclo[2.2.1]heptan-3-yl)-8-aminoimidazo[1,5-a]pyrazin-1-yl)-N-(pyridin-2-yl)benzamide], the IC50 in data set [1] is more than 30000 nM. In data set [2], the “F (po) %” value turned out to be 36.56%, the clearance was 58.5 mL/min/kg, the half-life was 36 min and the AUC was found to be 1040 ng·h/mL. In addition, in data set [2], the Cmax was 1160 ng/mL and the Tmax amounted to 15 min. In addition, in data set [3], the half-inhibitory concentration (IC50) amounted to 4.2 nM. In addition, in data set [4], the half-inhibitory concentration (IC50) was found to be 3.3 nM. Besides, the half-inhibitory concentration (IC50) in data set [5] was found to be 0.38 nM. Moreover, the IC50 in data set [6] came out at 182 nM.

Take `C=CC(=O)N1CC2CCCC2C1c1nc(-c2ccc(C(=O)Nc3ccccn3)cc2)c2c(N)nccn12` (stereo not shown) [Example 3]: the IC50 in data set [1] was more than 30000 nM. Moreover, in data set [2], the “F (po) %” value is listed as 52.55%, the clearance was 57 mL/min/kg, the half-life was 37.2 min and the AUC worked out at 1490 ng·h/mL. In data set [2], the highest level (Cmax) was 1620 ng/mL and the Tmax turned out to be 16.2 min. In data set [3], the 50% inhibitory concentration (IC50) came to 0.26 nM. The concentration for half-maximal inhibition (IC50) in data set [5] was 0.24 nM. Besides, in data set [6], the half-maximal inhibitory concentration (IC50) worked out at 191 nM.

With `C=CC(=O)N1C[C@H]2[C@@H]([C@H]1c1nc(-c3ccc(C(=O)Nc4ccccn4)cc3)c3c(N)nccn13)C2(C)C` [Example 5], in data set [1], the IC50 is more than 30000 nM. In addition, in data set [2], the “F (po) %” value turned out to be 20.64%, the clearance is 121 mL/min/kg, the half-life is 7.8 min and the exposure (AUC) is 278 ng·h/mL. Besides, in data set [2], the peak concentration (Cmax) came to 303 ng/mL and the time of peak concentration (Tmax) came out at 6 min. Besides, in data set [3], the IC50 worked out at 3.6 nM. Further, the IC50 in data set [4] amounted to 21 nM. Further, the IC50 in data set [5] was 0.21 nM. Besides, the IC50 in data set [6] amounted to 175 nM.

Regarding `C=CC(=O)N1CC2CCCC2C1c1nc(-c2ccc(Oc3ccccc3)cc2)c2c(N)nccn12` (stereo not shown) [Example 96], in data set [2], the “F (po) %” value was determined as 34.53%, the clearance was 32.7 mL/min/kg, the half-life is 33 min and the AUC amounted to 1580 ng·h/mL. In addition, in data set [2], the Cmax was 1590 ng/mL and the Tmax was 21.6 min. Besides, the IC50 in data set [3] was 3.2 nM. Also, in data set [4], the half-inhibitory concentration (IC50) was 3.1 nM. In data set [5], the IC50 came to 0.34 nM. Besides, the IC50 in data set [6] was 200 nM.

Consider `CC#CC(=O)N1CCC[C@H]1c1nc(-c2ccc(C(=O)Nc3ccccn3)cc2)c2c(N)nccn12` [ACP-196, reference compound], for which, in data set [2], the “F (po) %” value was found to be 19.75%, the clearance was 125 mL/min/kg, the half-life is 7.8 min and the AUC was 266 ng·h/mL. In addition, in data set [2], the Cmax amounted to 266 ng/mL and the time to peak (Tmax) is 4.8 min. In data set [3], the IC50 was found to be 1.3 nM. The 50% inhibitory concentration (IC50) in data set [5] is 1.4 nM. Moreover, the IC50 in data set [6] is more than 1000 nM.

With `C=CC(=O)N1C2C[C@@H](C1c1nc(-c3ccc(C(=O)Nc4ccccn4)cc3)c3c(N)nccn13)N(C(C)=O)C2` (stereo partly shown) [Example 18], the IC50 in data set [1] is more than 30000 nM; in data set [3], 1.6 nM; in data set [4] it was 1.4 nM; in data set [5], 0.25 nM; in data set [6], 177 nM.

Molecule `C=CC(=O)N1C2CCC1(c1nc(-c3ccc(C(=O)Nc4ccccn4)cc3)c3c(N)nccn13)COC2` (stereo not shown) [Example 11] showed a half-maximal inhibitory concentration (IC50) in data set [1] of more than 30000 nM. Besides, in data set [2], the “F (po) %” value was 34.59%, the clearance is 36.5 mL/min/kg, the half-life was 28.2 min and the exposure (AUC) worked out at 1580 ng·h/mL. For the same molecule, in data set [2], the Cmax came to 1610 ng/mL and the time to peak (Tmax) is 19.8 min. Moreover, in data set [3], the IC50 came to 1.5 nM. Moreover, the concentration for half-maximal inhibition (IC50) in data set [4] was determined as 2.6 nM. The IC50 in data set [5] stood at 1.8 nM. The IC50 in data set [6] turned out to be 133 nM.

`CC#CC(=O)N1C2CC[C@@H](C2)C1c1nc(-c2ccc(C(=O)Nc3cc(C(F)(F)F)ccn3)cc2)c2c(N)nccn12` (stereo partly shown) [Example 47] registered an IC50 in data set [1] of more than 30000 nM. For the same molecule, in data set [2], the “F (po) %” value was determined as 21.89%, the clearance is 38 mL/min/kg, the half-life is 18 min and the exposure (AUC) is 971 ng·h/mL. In data set [2], the highest concentration (Cmax) turned out to be 1120 ng/mL and the Tmax is 15 min. The half-maximal inhibitory concentration (IC50) in data set [3] was determined as 4.6 nM. Besides, the IC50 in data set [4] was 5.2 nM. Also, in data set [5], the IC50 is 0.41 nM. For the same molecule, the IC50 in data set [6] was 172 nM.

Regarding `C=CC(=O)N1CCC[C@@H](n2nc(-c3ccc(Oc4ccccc4)cc3)c3c(N)ncnc32)C1` [Ibrutinib, reference compound], in data set [2], the “F (po) %” value is 2.67%, the AUC stood at 218 ng·h/mL, the highest level (Cmax) was 217 ng/mL and the Tmax is 19.8 min. Besides, the IC50 in data set [3] was found to be 0.28 nM. Besides, in data set [5], the concentration for half-maximal inhibition (IC50) turned out to be 0.41 nM. For the same molecule, the IC50 in data set [6] was 705 nM.

For `C=CC(=O)N1C2CC[C@@H](C2)C1c1nc(-c2ccc(C(C)(O)c3ccccc3)cc2)c2c(N)nccn12` (stereo partly shown) [Example 79], in data set [1], the IC50 is more than 30000 nM. Further, in data set [2], the “F (po) %” value is 27.12%, the clearance is 57.5 mL/min/kg, the half-life was 31.2 min and the area under the curve (AUC) was found to be 770 ng·h/mL. In addition, in data set [2], the Cmax is 1110 ng/mL and the time of peak concentration (Tmax) was 12.6 min. Moreover, in data set [3], the IC50 worked out at 1.2 nM. Also, the IC50 in data set [4] stood at 4.9 nM. Moreover, in data set [5], the IC50 came out at 0.13 nM. The IC50 in data set [6] is 164 nM.

For orientation: IC50 means the concentration that inhibits the measured activity by half. One may read the AUC as the area under the concentration-time curve, a measure of exposure. Low readings indicate low exposure, high ones high exposure. For orientation: Cmax means the peak of the concentration-time curve. A word on the Tmax: it is the time at which the peak concentration occurs.
